Experimental data: ChEMBL document CHEMBL4376820, “Homodimeric Tobramycin Adjuvant Repurposes Novobiocin as an Effective Antibacterial Agent against Gram-Negative Bacteria” (J Med Chem, 2019)

Experiments:
Format in all cases: functional
[1] = system: Escherichia coli; experiment: Potentiation of novobiocin-induced antibacterial activity against colistin-resistant Escherichia coli 94393 clinical isolate harboring mcr-1 gene assessed as fold reduction in novobiocin MIC incubated for 18 hrs by CLSI protocol based assay relative to novobiocin MIC
[2] = system: Klebsiella pneumoniae; experiment: Potentiation of novobiocin-induced antibacterial activity against Klebsiella pneumoniae 116381 clinical isolate assessed as fold reduction in novobiocin MIC incubated for 18 hrs by CLSI protocol based assay relative to novobiocin MIC
[3] = system: Pseudomonas aeruginosa; experiment: Antibacterial activity against colistin and carbapenem-resistant Pseudomonas aeruginosa 101243 clinical isolate incubated for 18 hrs by CLSI protocol based assay; conditions: Pseudomonas aeruginosa, 101243, 18 h
[4] = system: Acinetobacter baumannii; experiment: Antibacterial activity against Acinetobacter baumannii 110193 clinical isolate incubated for 18 hrs by CLSI protocol based assay; conditions: Acinetobacter baumannii, 110193, 18 h

NC[C@H]1O[C@H](O[C@H]2[C@H](OCCCCc3cn(CCCCO[C@@H]4[C@@H](O[C@H]5O[C@H](CO)[C@@H](O)[C@H](N)[C@H]5O)[C@H](N)C[C@H](N)[C@H]4O[C@H]4O[C@H](CN)[C@@H](O)C[C@H]4N)nn3)[C@@H](O[C@H]3O[C@H](CO)[C@@H](O)[C@H](N)[C@H]3O)[C@H](N)C[C@@H]2N)[C@H](N)C[C@@H]1O.O=C(O)C(F)(F)F.O=C(O)C(F)(F)F.O=C(O)C(F)(F)F.O=C(O)C(F)(F)F.O=C(O)C(F)(F)F.O=C(O)C(F)(F)F.O=C(O)C(F)(F)F.O=C(O)C(F)(F)F.O=C(O)C(F)(F)F.O=C(O)C(F)(F)F
Ratio [1]: 64
Ratio [2]: 128
MIC [3]: > 128 µg/mL
MIC [4]: > 128 µg/mL
